≈ marks a conversion by molar mass, not a printed value.
system: Enterococcus faecalis ATCC 29212; experiment: MIC testing against Enterococcus faecalis ATCC 29212; format: cell-based; conditions: ATCC29212, read-out: MICs against Enterococcus faecalis, Activity
Experimental: Minimum Inhibitory Concentration (MIC) Testing Compounds of this invention were tested for antimicrobial activity by susceptibility testing in liquid or on solid media. MICs for compounds against each strain were determined by the broth microdilution or agar dilution method according to the guidelines of the Clinical Laboratories and Standards Institute, formerly the National Committee for Clinical Laboratory Standards (Clinical Laboratories and Standards Institute. Methods for Dilution Antimicrobial Susceptibility Tests for Bacteria That Grow Aerobically; Approved Standard—Seventh Edition. Document M7-A7. CLSI, Wayne, Pa., 2006; Clinical Laboratories and Standards Institute. Methods for Antimicrobial Susceptibility Testing of Anaerobic Bacteria; Approved Standard—Sixth Edition. Document M11-A6. CLSI, Wayne, Pa., 2004).

MIC [µg/mL] | Structure (SMILES)
0.25 to 1 (≈ 0.722 to 2.89 µM) | CCNC(=O)Nc1nc2cc(-c3cncc(OC)c3)c(F)cc2s1 [Example 58, 1-ethyl-3-(6-fluoro-5-(5-methoxypyridin-3-yl)benzo[d]thiazol-2-yl)urea]
0.25 to 1 (≈ 0.752 to 3.01 µM) | CCNC(=O)Nc1nc2cc(-c3cncc(O)c3)c(F)cc2s1 [Example 59, 1-ethyl-3-(6-fluoro-5-(5-hydroxypyridin-3-yl)benzo[d]thiazol-2-yl)urea]
0.25 to 1 (≈ 0.668 to 2.67 µM) | CCNC(=O)Nc1nc2cc(-c3ccc(C(N)=NO)nc3)c(F)cc2s1 [Example 60, 5-(2-(3-ethylureido)-6-fluorobenzo[d]thiazol-5-yl)-N′-hydroxypicolinimidamide]
0.25 to 1 (≈ 0.722 to 2.89 µM) | CCNC(=O)Nc1nc2cc(-c3ccn(C)c(=O)c3)c(F)cc2s1 [Example 61, 1-ethyl-3-(6-fluoro-5-(1-methyl-2-oxo-1,2-dihydropyridin-4-yl)benzo[d]thiazol-2-yl)urea]
0.25 to 1 (≈ 0.561 to 2.24 µM) | CCNC(=O)Nc1nc2cc(-c3ccn(CCN4CCOCC4)c(=O)c3)c(F)cc2s1 [Example 62, 1-ethyl-3-(6-fluoro-5-(1-(2-morpholinoethyl)-2-oxo-1,2-dihydropyridin-4-yl)benzo[d]thiazol-2-yl)urea]
2 to 16 (≈ 4.96 to 39.7 µM) | CCNC(=O)Nc1nc2cc(-c3ccn(CCN(C)C)c(=O)c3)c(F)cc2s1 [Example 63, 1-(5-(1-(2-(dimethylamino)ethyl)-2-oxo-1,2-dihydropyridin-4-yl)-6-fluorobenzo[d]thiazol-2-yl)-3-ethylurea]
0.25 to 1 (≈ 0.722 to 2.89 µM) | CCNC(=O)Nc1nc2cc(-c3ccc(CO)nc3)c(F)cc2s1 [Example 65, 1-ethyl-3-(6-fluoro-5-(6-(hydroxymethyl)pyridin-3-yl)benzo[d]thiazol-2-yl)urea]
2 to 16 (≈ 4.81 to 38.5 µM) | CCNC(=O)Nc1nc2cc(-c3ccc(CN4CCOCC4)nc3)c(F)cc2s1 [Example 66, 1-ethyl-3-(6-fluoro-5-(6-(morpholinomethyl)pyridin-3-yl)benzo[d]thiazol-2-yl)urea]
2 to 16 (≈ 4.98 to 39.9 µM) | CCNC(=O)Nc1nc2cc(-c3ccn(C4CCNC4)c(=O)c3)c(F)cc2s1 (centres unmarked) [Example 67, 1-ethyl-3-(6-fluoro-5-(2-oxo-1-(pyrrolidin-3-yl)-1,2-dihydropyridin-4-yl)benzo[d]thiazol-2-yl)urea]
2 to 16 (≈ 5.16 to 41.3 µM) | CCNC(=O)Nc1nc2cc(-c3ccc(CC(=O)NC)nc3)c(F)cc2s1 [Example 68, 2-{5-[2-(3-ethyl-ureido)-6-fluoro-benzothiazol-5-yl]-pyridin-2-yl}-N-methyl-acetamide]
2 to 16 (≈ 6.2 to 49.6 µM) | CCNC(=O)Nc1nc2cc(-c3cncs3)c(F)cc2s1 [Example 69, 1-ethyl-3-(6-fluoro-5-(thiazol-5-yl)benzo[d]thiazol-2-yl)urea]
2 to 16 (≈ 5.06 to 40.5 µM) | CCNC(=O)Nc1nc2cc(-c3cnc(S(C)(=O)=O)nc3)c(F)cc2s1 [Example 70, 1-ethyl-3-(6-fluoro-5-(2-(methylsulfonyl)pyrimidin-5-yl)benzo[d]thiazol-2-yl)urea]
0.25 to 1 (≈ 0.761 to 3.05 µM) | CCNC(=O)Nc1nc2cc(-c3cccnc3)c(OC)cc2s1 [Example 71, 1-ethyl-3-(6-methoxy-5-(pyridin-3-yl)benzo[d]thiazol-2-yl)urea]
0.25 to 1 (≈ 0.697 to 2.79 µM) | CCNC(=O)Nc1nc2cc(-c3ccn(C)c(=O)c3)c(OC)cc2s1 [Example 72, 1-ethyl-3-(6-methoxy-5-(1-methyl-2-oxo-1,2-dihydropyridin-4-yl)benzo[d]thiazol-2-yl)urea]
2 to 16 (≈ 6.4 to 51.2 µM) | CCNC(=O)Nc1nc2cc(-c3cccnc3)c(C)cc2s1 [Example 73, 1-ethyl-3-(6-methyl-5-(pyridin-3-yl)benzo[d]thiazol-2-yl)urea]
0.25 to 1 (≈ 0.73 to 2.92 µM) | CCNC(=O)Nc1nc2cc(-c3ccn(C)c(=O)c3)c(C)cc2s1 [Example 74, 1-ethyl-3-(6-methyl-5-(1-methyl-2-oxo-1,2-dihydropyridin-4-yl)benzo[d]thiazol-2-yl)urea]
2 to 16 (≈ 6.68 to 53.4 µM) | CCNC(=O)Nc1nc2cc(-c3cccnc3)cnc2s1 [Example 75, 1-ethyl-3-(6-(pyridin-3-yl)thiazolo[5,4-b]pyridin-2-yl)urea]

Second part, the molecule before the results:

Structure (SMILES) | MIC [µg/mL]
CCNC(=O)Nc1nc2cc(-c3cc(C)n(C(C)c4ccccn4)c(=O)c3)ccc2s1 (centres unmarked) [Example 36, 1-ethyl-3-(5-(6-methyl-2-oxo-1-(1-(pyridin-2-yl)ethyl)-1,2-dihydropyridin-4-yl)benzo[d]thiazol-2-yl)urea] | 2 to 16 (≈ 4.61 to 36.9 µM)
CCNC(=O)Nc1nc2cc(-c3ccc4c(=O)c(C(=O)OCC)cn(C)c4c3)ccc2s1 [Example 37, ethyl 7-(2-(3-ethylureido)benzo[d]thiazol-5-yl)-1-methyl-4-oxo-1,4-dihydroquinoline-3-carboxylate] | 2 to 16 (≈ 4.44 to 35.5 µM)
CCNC(=O)Nc1nc2cc(-c3ccc(NC(C)=O)nc3)c(F)cc2s1 [Example 38, N-(5-(2-(3-ethylureido)-6-fluorobenzo[d]thiazol-5-yl)pyridin-2-yl)acetamide] | 0.25 to 1 (≈ 0.669 to 2.68 µM)
CCNC(=O)Nc1nc2cc(-c3cnn(CC(=O)OCC)c3)c(F)cc2s1 [Example 39, ethyl 2-(4-(2-(3-ethylureido)-6-fluorobenzo[d]thiazol-5-yl)-1H-pyrazol-1-yl)acetate] | 2 to 16 (≈ 5.11 to 40.9 µM)
CCNC(=O)Nc1nc2cc(-c3cc(C)oc(=O)c3)c(F)cc2s1 [Example 40, 1-ethyl-3-(6-fluoro-5-(6-methyl-2-oxo-2H-pyran-4-yl)benzo[d]thiazol-2-yl)urea] | 0.25 to 1 (≈ 0.72 to 2.88 µM)
CCNC(=O)Nc1nc2cc(-c3cnc(N4CCN(CCO)CC4)nc3)c(F)cc2s1 [Example 41, 1-ethyl-3-(6-fluoro-5-(2-(4-(2-hydroxyethyl)piperazin-1-yl)pyrimidin-5-yl)benzo[d]thiazol-2-yl)urea] | 2 to 16 (≈ 4.49 to 35.9 µM)
CCNC(=O)Nc1nc2cc(-c3cnc(N4CCNCC4)nc3)c(F)cc2s1.Cl [Example 42, 1-ethyl-3-(6-fluoro-5-(2-(piperazin-1-yl)pyrimidin-5-yl)benzo[d]thiazol-2-yl)urea hydrochloride salt] | 2 to 16
CCNC(=O)Nc1nc2cc(-c3cnc(N4CCC(C(=O)OC)CC4)nc3)c(F)cc2s1 [Example 43, methyl 1-(5-(2-(3-ethylureido)-6-fluorobenzo[d]thiazol-5-yl)pyrimidin-2-yl)piperidine-4-carboxylate] | 0.25 to 1 (≈ 0.545 to 2.18 µM)
CCNC(=O)Nc1nc2cc(-c3cnc(N4CCC(C(=O)O)CC4)nc3)c(F)cc2s1 [Example 44, 1-(5-(2-(3-ethylureido)-6-fluorobenzo[d]thiazol-5-yl)pyrimidin-2-yl)piperidine-4-carboxylic acid] | < 0.25
CCNC(=O)Nc1nc2cc(-c3cnc(N4CCCC(C(=O)OC)C4)nc3)c(F)cc2s1 (centres unmarked) [Example 45, methyl 1-(5-(2-(3-ethylureido)-6-fluorobenzo[d]thiazol-5-yl)pyrimidin-2-yl)piperidine-3-carboxylate] | 0.25 to 1 (≈ 0.545 to 2.18 µM)
CCNC(=O)Nc1nc2cc(-c3cnc(N4CCCC(C(=O)O)C4)nc3)c(F)cc2s1 (centres unmarked) [Example 46, 1-(5-(2-(3-ethylureido)-6-fluorobenzo[d]thiazol-5-yl)pyrimidin-2-yl)piperidine-3-carboxylic acid] | 0.25 to 1 (≈ 0.562 to 2.25 µM)
CCNC(=O)Nc1nc2cc(-c3cnn(C(C)C(=O)OC)c3)c(F)cc2s1 (centres unmarked) [Example 47, methyl 2-(4-(2-(3-ethylureido)-6-fluorobenzo[d]thiazol-5-yl)-1H-pyrazol-1-yl)propanoate] | 2 to 16 (≈ 5.11 to 40.9 µM)
CCNC(=O)Nc1nc2cc(-c3c[nH]c4ncccc34)c(F)cc2s1 [Example 48, 1-ethyl-3-(6-fluoro-5-(1H-pyrrolo[2,3-b]pyridin-3-yl)benzo[d]thiazol-2-yl)urea] | 0.25 to 1 (≈ 0.703 to 2.81 µM)
CCNC(=O)Nc1nc2cc(-c3cc(C)n(CC4CCN(C)C4)c(=O)c3)c(F)cc2s1 (centres unmarked) [Example 50, 1-ethyl-3-(6-fluoro-5-(6-methyl-1-((1-methylpyrrolidin-3-yl)methyl)-2-oxo-1,2-dihydropyridin-4-yl)benzo[d]thiazol-2-yl)urea] | 2 to 16 (≈ 4.51 to 36.1 µM)
CCNC(=O)Nc1nc2cc(-c3cc(C)n(CC4CCCCN4C)c(=O)c3)c(F)cc2s1 (centres unmarked) [Example 51, 1-ethyl-3-(6-fluoro-5-(6-methyl-1-((1-methylpiperidin-2-yl)methyl)-2-oxo-1,2-dihydropyridin-4-yl)benzo[d]thiazol-2-yl)urea] | 2 to 16 (≈ 4.37 to 35 µM)
CCNC(=O)Nc1nc2cc(-c3cc(C)n(Cc4cn(C)cn4)c(=O)c3)c(F)cc2s1 [Example 52, 1-ethyl-3-(6-fluoro-5-(6-methyl-1-((1-methyl-1H-imidazol-4-yl)methyl)-2-oxo-1,2-dihydropyridin-4-yl)benzo[d]thiazol-2-yl)urea] | 0.25 to 1 (≈ 0.568 to 2.27 µM)
CCNC(=O)Nc1nc2cc(-c3cc(C)n(CC4CCCN4C(=O)OC(C)(C)C)c(=O)c3)c(F)cc2s1 (centres unmarked) [Example 53, tert-butyl 2-((4-(2-(3-ethylureido)-6-fluorobenzo[d]thiazol-5-yl)-6-methyl-2-oxopyridin-1(2H)-yl)methyl)pyrrolidine-1-carboxylate] | 2 to 16 (≈ 3.78 to 30.2 µM)
CCNC(=O)Nc1nc2cc(-c3cc(C)n(CCCN(C)C)c(=O)c3)c(F)cc2s1 [Example 54, 1-(5-(1-(3-(dimethylamino)propyl)-6-methyl-2-oxo-1,2-dihydropyridin-4-yl)-6-fluorobenzo[d]thiazol-2-yl)-3-ethylurea] | 2 to 16 (≈ 4.63 to 37.1 µM)
CCNC(=O)Nc1nc2cc(-c3ccc(-c4noc(C)n4)nc3)c(F)cc2s1 [Example 55, 1-ethyl-3-(6-fluoro-5-(6-(5-methyl-1,2,4-oxadiazol-3-yl)pyridin-3-yl)benzo[d]thiazol-2-yl)urea] | 0.25 to 1 (≈ 0.627 to 2.51 µM)
CCNC(=O)Nc1nc2cc(-c3cc(OC)ccn3)c(F)cc2s1 [Example 56, 1-ethyl-3-[6-fluoro-5-(4-methoxy-pyridin-2-yl)-benzothiazol-2-yl]-urea] | 2 to 16 (≈ 5.77 to 46.2 µM)
CCNC(=O)Nc1nc2cc(-c3cnc(N4CCN(C)CC4)nc3)c(F)cc2s1 [Example 57, 1-ethyl-3-(6-fluoro-5-(2-(4-methylpiperazin-1-yl)pyrimidin-5-yl)benzo[d]thiazol-2-yl)urea] | 2 to 16 (≈ 4.81 to 38.5 µM)

Source: patent US8299065B2, “Antibacterial condensed thiazoles” (Biota Europe Ltd., priority 2007, dated 2012)
